Measurements published in ChEMBL document CHEMBL1201862, “PubChem BioAssay data set” (2004).
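Dose response: 5 concentrations. Exposure: 48 h. Format: 96-well plates. Endpoint: linear interpolation; highest concentration if not reached. GI50 = concentration required for 50% inhibition of growth.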 Active and inactive are the calls of the source. No stated cut-off is given here; in the data, active = GI50 up to about 1.1 µM and inactive = higher.

Assays:
Assay in all cases: NCI tumour cell line growth inhibition, 48 h
[1] = system: K562
[2] = system: MDA-MB-435
[3] = system: IGROV-1
[4] = system: ACHN
[5] = system: HCT-116
[6] = system: RPMI-8226
[7] = system: NCI-H23
[8] = system: COLO 205
[9] = system: NCI-H460
[10] = system: UACC-62
[11] = system: SF-268
[12] = system: M14
[13] = system: PC-3
[14] = system: BT-549
[15] = system: SK-MEL-5
[16] = system: HOP-62
[17] = system: MOLT-4
[18] = system: CCRF-CEM
[19] = system: HL-60
[20] = system: SR

Measured: GI50

CCOC1OC(CO)C(O)CC1n1ccc(=O)[nH]c1=O (centres undefined)
inactive: [1] > 100 µM | [2] > 100 µM | [3] > 100 µM | [4] > 100 µM | [5] > 100 µM | [6] > 100 µM | [7] > 100 µM | [8] > 100 µM | [9] > 100 µM | [10] > 100 µM | [11] > 100 µM | [12] > 100 µM | [13] > 100 µM | [14] > 100 µM | [15] > 100 µM

CSc1nc2c(c(N(C)C)n1)C=Nn1c(nc3ccccc31)S2
inactive: [1] > 100 µM | [2] > 100 µM | [3] > 100 µM | [4] 61.2 µM | [5] 57.7 µM | [6] > 100 µM | [7] > 100 µM | [8] > 100 µM | [9] 89.1 µM | [16] 84.3 µM | [10] 83 µM | [11] 60.4 µM | [17] > 100 µM | [12] > 100 µM | [13] > 100 µM | [14] 95.9 µM | [15] 52.1 µM

O=c1cc(N2CCOCC2)[nH]c(=O)n1-c1cccc(C(F)(F)F)c1
inactive: [1] > 100 µM | [2] > 100 µM | [3] > 100 µM | [4] > 100 µM | [5] > 100 µM | [7] > 100 µM | [8] > 100 µM | [9] > 100 µM | [18] > 100 µM | [19] > 100 µM | [16] > 100 µM | [10] > 100 µM | [11] > 100 µM | [17] > 100 µM | [12] > 100 µM | [20] > 100 µM | [14] > 100 µM | [15] > 100 µM

c1ccc2nc3c(nc2c1)sc1ccccc13
inactive: [1] > 100 µM | [2] 94.4 µM | [3] 15.6 µM | [4] 14.3 µM | [5] 26.7 µM | [6] > 100 µM | [7] 23.2 µM | [8] 58.3 µM | [9] 13.6 µM | [18] 30.9 µM | [19] > 100 µM | [16] 30.7 µM | [10] 14.9 µM | [11] 20.7 µM | [17] 21.8 µM | [12] > 100 µM | [20] 41.2 µM | [14] 39.2 µM | [15] 30.9 µM
